# Measured values from US11566057B2, “Long-acting co-agonists of the glucagon and GLP-1 receptors” (Merck Sharp & Dohme Corp., priority 2017, dated 2023).
# Read-outs that look alike come from different tables or passages of the source. Numbered stars: 1 amine (or outer) side, 2 acyl side, 3 side chain; on linkers, the order of the positions; unused ones are H or OH. Square brackets hold non-standard residues; d marks the D form. Side chains are listed from the residue outwards. Peptide text beside a SMILES is read from it. * marks the point of attachment. C20 diacid = O=C(O)CCCCCCCCCCCCCCCCCCC(=O)*; Phe(4-CH2NH2) = NCc1ccc(C[C@H](N)C(=O)O)cc1; C18 diacid = O=C(O)CCCCCCCCCCCCCCCCC(=O)*; C16 diacid = O=C(O)CCCCCCCCCCCCCCC(=O)*; γGlu = O=C(O)[C@H](CCC(=O)[*:2])N[*:1]; Met(O2) = CS(=O)(=O)CC[C@H](N)C(=O)O; αMeD = C[C@](N)(CC(=O)O)C(=O)O; αMeS = C[C@](N)(CO)C(=O)O; AEEA = NCCOCCOCC(=O)O; Aib = CC(C)(N)C(=O)O
# What was measured:
# [1] = biological target: T1, human GCGR (Homo sapiens, UniProt P47871); experiment: cAMP activity assay at the Glucagon receptor (GCGR); format: cell-based; settings: for hGCGR/hGLP1R (hTone): ratio of GCGR EC50 to GLP1R EC50
# T1 construct: expressed in transfected cells; growth medium holds Blasticidin and Hygromycin
# How it was run: (§1)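 Peptides serially diluted from DMSO (10 points) and added to frozen-stock cells bearing human GLP1R (10,000 cells/well) or GCGR (30,000 cells/well), 1 h at RT, dark. EC50 by four-parameter logistic fit of HitHunter cAMPXS luminescence, read following overnight RT incubation.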
# [2] = biological target: T2, human GLP1R (Homo sapiens, UniProt P43220); experiment: cAMP activity assay at the GLP-1 receptor (GLP1R); format: cell-based
# T2 construct: expressed in transfected cells; growth medium holds Blasticidin and Hygromycin
# How it was run: as §1
# [3] = summary statement: EC50 at each of the glucagon and GLP-1 receptors, read-out: EC50 at the glucagon receptor
# [4] = summary statement: EC50 at each of the glucagon and GLP-1 receptors, read-out: EC50 at the GLP-1 receptor
# [5] = cells expressing human GCGR, cAMP production, buffer with or without 20% human serum (not stated which), read-out: GCGR EC50 human
# T2 sequence (P43220 24-463): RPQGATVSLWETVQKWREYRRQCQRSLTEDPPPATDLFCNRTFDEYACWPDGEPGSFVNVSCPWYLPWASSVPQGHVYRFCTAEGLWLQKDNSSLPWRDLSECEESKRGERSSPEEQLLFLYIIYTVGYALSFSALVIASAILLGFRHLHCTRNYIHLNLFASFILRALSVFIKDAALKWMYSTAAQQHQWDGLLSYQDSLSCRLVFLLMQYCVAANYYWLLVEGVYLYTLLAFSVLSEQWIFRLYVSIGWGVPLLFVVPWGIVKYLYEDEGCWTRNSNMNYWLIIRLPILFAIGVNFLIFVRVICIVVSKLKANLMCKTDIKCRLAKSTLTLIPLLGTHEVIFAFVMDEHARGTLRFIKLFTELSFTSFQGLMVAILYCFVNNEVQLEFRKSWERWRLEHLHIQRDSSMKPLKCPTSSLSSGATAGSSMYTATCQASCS
# T1 sequence (P47871 26-477): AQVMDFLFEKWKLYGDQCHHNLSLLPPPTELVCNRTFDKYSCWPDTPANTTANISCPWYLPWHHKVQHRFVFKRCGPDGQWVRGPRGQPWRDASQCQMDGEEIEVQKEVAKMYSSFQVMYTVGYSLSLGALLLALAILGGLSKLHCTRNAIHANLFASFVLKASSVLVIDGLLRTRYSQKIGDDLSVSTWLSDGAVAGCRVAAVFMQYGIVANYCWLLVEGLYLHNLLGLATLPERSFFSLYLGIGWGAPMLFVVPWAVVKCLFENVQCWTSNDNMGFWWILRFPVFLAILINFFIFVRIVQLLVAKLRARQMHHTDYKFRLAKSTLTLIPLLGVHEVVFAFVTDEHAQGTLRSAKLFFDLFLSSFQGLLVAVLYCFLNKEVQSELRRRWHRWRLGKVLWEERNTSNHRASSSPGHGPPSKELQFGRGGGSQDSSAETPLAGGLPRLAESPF
Compound,hGCGR/hGLP1R (hTone) [1],"EC50 [1, 3] [nM]","EC50 [2, 4] [nM]","EC50 [1, 5] [nM]","EC50 ([2]; cells expressing human GLP1R, cAMP production, buffer with or without 20% human serum (not stated which), read-out: GLP1R EC50 human) [nM]"
CC(C)C[C@H](NC(=O)[C@H](Cc1ccc(O)cc1)NC(=O)[C@H](CCCCN)NC(=O)[C@H](CO)NC(=O)[C@H](Cc1ccc(O)cc1)NC(=O)[C@H](CC(=O)O)NC(=O)[C@H](CO)NC(=O)[C@@H](NC(=O)[C@H](Cc1ccccc1)NC(=O)[C@@H](NC(=O)CNC(=O)[C@H](CCC(N)=O)NC(=O)C(C)(C)NC(=O)[C@@H](N)Cc1c[nH]cn1)[C@@H](C)O)[C@@H](C)O)C(=O)N[C@@H](CC(=O)O)C(=O)N[C@@H](CO)C(=O)N[C@@H](CCCNC(=N)N)C(=O)N[C@@H](C)C(=O)N[C@@H](C)C(=O)N[C@@H](CCCCNC(=O)COCCOCCNC(=O)COCCOCCNC(=O)CC[C@H](NC(=O)CCCCCCCCCCCCCCCCCCC(=O)O)C(=O)O)C(=O)N[C@@H](CC(=O)O)C(=O)N[C@@H](Cc1ccccc1)C(=O)N[C@H](C(=O)N[C@@H](CCC(N)=O)C(=O)N[C@@H](Cc1c[nH]c2ccccc12)C(=O)N[C@@H](CC(C)C)C(=O)N[C@@H](CCS(C)(=O)=O)C(=O)N[C@@H](CC(=O)O)C(=O)N[C@H](C(N)=O)[C@@H](C)O)C(C)C [TP577] (H-H[Aib]QGTFTSDYSKYLDSRAAK([AEEA-AEEA-γGlu-C20 diacid])DFVQWL[Met(O2)]DT-NH2; N-terminus assumed),2.7,< 5,< 5,4.54,
CC(C)C[C@H](NC(=O)[C@H](Cc1ccc(O)cc1)NC(=O)[C@H](CCCCN)NC(=O)[C@H](CO)NC(=O)[C@H](Cc1ccc(O)cc1)NC(=O)[C@H](CC(=O)O)NC(=O)[C@H](CO)NC(=O)[C@@H](NC(=O)[C@H](Cc1ccccc1)NC(=O)[C@@H](NC(=O)CNC(=O)[C@H](CCC(N)=O)NC(=O)[C@](C)(CO)NC(=O)[C@@H](N)Cc1c[nH]cn1)[C@@H](C)O)[C@@H](C)O)C(=O)N[C@@H](CC(=O)O)C(=O)NC(C)(C)C(=O)N[C@@H](CCCNC(=N)N)C(=O)N[C@@H](C)C(=O)N[C@@H](C)C(=O)N[C@@H](CCCCNC(=O)COCCOCCNC(=O)COCCOCCNC(=O)CC[C@H](NC(=O)CCCCCCCCCCCCCCC(=O)O)C(=O)O)C(=O)N[C@@H](CC(=O)O)C(=O)N[C@@H](Cc1ccccc1)C(=O)N[C@H](C(=O)N[C@@H](CCC(N)=O)C(=O)N[C@@H](Cc1c[nH]c2ccccc12)C(=O)N[C@@H](CC(C)C)C(=O)N[C@@H](CCS(C)(=O)=O)C(=O)N[C@@](C)(CC(=O)O)C(=O)N[C@H](C(N)=O)[C@@H](C)O)C(C)C [TP618] (H-H[αMeS]QGTFTSDYSKYLD[Aib]RAAK([AEEA-AEEA-γGlu-C16 diacid])DFVQWL[Met(O2)][αMeD]T-NH2),0.1,< 5,< 5,0.36,
CC(C)C[C@H](NC(=O)[C@H](Cc1c[nH]c2ccccc12)NC(=O)[C@H](CCC(N)=O)NC(=O)[C@@H](NC(=O)[C@H](Cc1ccccc1)NC(=O)[C@H](CC(=O)O)NC(=O)[C@H](CCCCNC(=O)COCCOCCNC(=O)COCCOCCNC(=O)CC[C@H](NC(=O)CCCCCCCCCCCCCCCCCCC(=O)O)C(=O)O)NC(=O)[C@H](C)NC(=O)[C@H](C)NC(=O)[C@H](CCCNC(=N)N)NC(=O)C(C)(C)NC(=O)[C@H](CC(=O)O)NC(=O)[C@H](CC(C)C)NC(=O)[C@H](Cc1ccc(O)cc1)NC(=O)[C@H](CCCCN)NC(=O)[C@H](CO)NC(=O)[C@H](Cc1ccc(O)cc1)NC(=O)[C@H](CC(=O)O)NC(=O)[C@H](CO)NC(=O)[C@@H](NC(=O)[C@H](Cc1ccccc1)NC(=O)[C@@H](NC(=O)CNC(=O)[C@H](CCC(N)=O)NC(=O)[C@](C)(CO)NC(=O)[C@@H](N)Cc1c[nH]cn1)[C@@H](C)O)[C@@H](C)O)C(C)C)C(=O)N[C@@H](CCS(C)(=O)=O)C(=O)N[C@@H](CC(=O)O)C(=O)N[C@H](C(N)=O)[C@@H](C)O [TP592] (H-H[αMeS]QGTFTSDYSKYLD[Aib]RAAK([AEEA-AEEA-γGlu-C20 diacid])DFVQWL[Met(O2)]DT-NH2; N-terminus assumed),1.4,< 5,< 5,3.39,

# Other lines, results leading:
hGCGR/hGLP1R (hTone) [1],"EC50 [1, 3] [nM]","EC50 [2, 4] [nM]","EC50 [1, 5] [nM]","EC50 ([2]; cells expressing human GLP1R, cAMP production, buffer with or without 20% human serum (not stated which), read-out: GLP1R EC50 human) [nM]",Compound
1.6,< 5,< 5,,,CC(C)C[C@H](NC(=O)[C@H](Cc1ccc(O)cc1)NC(=O)[C@H](CCCCN)NC(=O)[C@H](CO)NC(=O)[C@H](Cc1ccc(O)cc1)NC(=O)[C@H](CC(=O)O)NC(=O)[C@H](CO)NC(=O)[C@@H](NC(=O)[C@H](Cc1ccccc1)NC(=O)[C@@H](NC(=O)CNC(=O)[C@H](CCC(N)=O)NC(=O)C(C)(C)NC(=O)[C@@H](N)Cc1c[nH]cn1)[C@@H](C)O)[C@@H](C)O)C(=O)N[C@@H](CC(=O)O)C(=O)N[C@@H](C)C(=O)N[C@@H](CCCNC(=N)N)C(=O)N[C@@H](C)C(=O)N[C@@H](C)C(=O)N[C@@H](CCC(N)=O)C(=O)N[C@@H](CCCCNC(=O)COCCOCCNC(=O)COCCOCCNC(=O)CC[C@H](NC(=O)CCCCCCCCCCCCCCC(=O)O)C(=O)O)C(=O)N[C@@H](Cc1ccccc1)C(=O)N[C@H](C(=O)N[C@@H](CCC(N)=O)C(=O)N[C@@H](Cc1c[nH]c2ccccc12)C(=O)N[C@@H](CC(C)C)C(=O)N[C@@H](CCS(C)(=O)=O)C(=O)N[C@@H](CCC(=O)N[C@H](C(N)=O)[C@@H](C)O)C(=O)O)C(C)C [TP827] (H-H[Aib]QGTFTSDYSKYLDARAAQK([AEEA-AEEA-γGlu-C16 diacid])FVQWL[Met(O2)][γGlu]T-NH2)
0.6,< 5,< 5,,,CC(C)C[C@H](NC(=O)[C@H](Cc1c[nH]c2ccccc12)NC(=O)[C@H](CCCCNC(=O)COCCOCCNC(=O)COCCOCCNC(=O)CC[C@H](NC(=O)CCCCCCCCCCCCCCCCC(=O)O)C(=O)O)NC(=O)[C@@H](NC(=O)[C@H](Cc1ccccc1)NC(=O)[C@H](CC(=O)O)NC(=O)[C@H](CCC(N)=O)NC(=O)[C@H](C)NC(=O)[C@H](C)NC(=O)[C@H](CCCNC(=N)N)NC(=O)C(C)(C)NC(=O)[C@H](CC(=O)O)NC(=O)[C@H](CC(C)C)NC(=O)[C@H](Cc1ccc(O)cc1)NC(=O)[C@H](CCCCN)NC(=O)[C@H](CO)NC(=O)[C@H](Cc1ccc(O)cc1)NC(=O)[C@H](CC(=O)O)NC(=O)[C@H](CO)NC(=O)[C@@H](NC(=O)[C@H](Cc1ccccc1)NC(=O)[C@@H](NC(=O)CNC(=O)[C@H](CCC(N)=O)NC(=O)C(C)(C)NC(=O)[C@@H](N)Cc1c[nH]cn1)[C@@H](C)O)[C@@H](C)O)C(C)C)C(=O)N[C@@H](CCS(C)(=O)=O)C(=O)N[C@@H](CC(=O)O)C(=O)N[C@H](C(=O)O)[C@@H](C)O [TP737] (H-H[Aib]QGTFTSDYSKYLD[Aib]RAAQDFVK([AEEA-AEEA-γGlu-C18 diacid])WL[Met(O2)]DT-OH; N-terminus assumed)
0.1,< 5,< 5,,0.38,CC(C)C[C@H](NC(=O)[C@H](Cc1ccc(O)cc1)NC(=O)[C@H](CCCCN)NC(=O)[C@H](CO)NC(=O)[C@H](Cc1ccc(O)cc1)NC(=O)[C@H](CC(=O)O)NC(=O)[C@H](CO)NC(=O)[C@@H](NC(=O)[C@H](Cc1ccccc1)NC(=O)[C@@H](NC(=O)CNC(=O)[C@H](CCC(N)=O)NC(=O)[C@](C)(CO)NC(=O)[C@@H](N)Cc1c[nH]cn1)[C@@H](C)O)[C@@H](C)O)C(=O)N[C@@H](CC(=O)O)C(=O)NC(C)(C)C(=O)N[C@@H](CCCNC(=N)N)C(=O)N[C@@H](C)C(=O)N[C@@H](C)C(=O)N[C@@H](CCC(N)=O)C(=O)N[C@@H](CCCCNC(=O)COCCOCCNC(=O)COCCOCCNC(=O)CC[C@H](NC(=O)CCCCCCCCCCCCCCC(=O)O)C(=O)O)C(=O)N[C@@H](Cc1ccccc1)C(=O)N[C@H](C(=O)N[C@@H](CCC(N)=O)C(=O)N[C@@H](Cc1c[nH]c2ccccc12)C(=O)N[C@@H](CC(C)C)C(=O)N[C@@H](CCS(C)(=O)=O)C(=O)N[C@@](C)(CC(=O)O)C(=O)N[C@H](C(N)=O)[C@@H](C)O)C(C)C [TP619] (H-H[αMeS]QGTFTSDYSKYLD[Aib]RAAQK([AEEA-AEEA-γGlu-C16 diacid])FVQWL[Met(O2)][αMeD]T-NH2)
0.4,< 5,< 5,,,CC(C)C[C@H](NC(=O)[C@H](Cc1ccc(O)cc1)NC(=O)[C@H](CCCCN)NC(=O)[C@H](CO)NC(=O)[C@H](Cc1ccc(CNC(=O)COCCOCCNC(=O)CC[C@H](NC(=O)CCCCCCCCCCCCCCC(=O)O)C(=O)O)cc1)NC(=O)[C@H](CC(=O)O)NC(=O)[C@H](CO)NC(=O)[C@@H](NC(=O)[C@H](Cc1ccccc1)NC(=O)[C@@H](NC(=O)CNC(=O)[C@H](CCC(N)=O)NC(=O)C(C)(C)NC(=O)[C@@H](N)Cc1c[nH]cn1)[C@@H](C)O)[C@@H](C)O)C(=O)N[C@@H](CC(=O)O)C(=O)N[C@@H](C)C(=O)N[C@@H](CCCNC(=N)N)C(=O)N[C@@H](C)C(=O)N[C@@H](C)C(=O)N[C@@H](CCC(N)=O)C(=O)N[C@@H](CC(=O)O)C(=O)N[C@@H](Cc1ccccc1)C(=O)N[C@H](C(=O)N[C@@H](CCC(N)=O)C(=O)N[C@@H](Cc1c[nH]c2ccccc12)C(=O)N[C@@H](CC(C)C)C(=O)N[C@@H](CCS(C)(=O)=O)C(=O)N[C@@H](CC(=O)O)C(=O)N[C@H](C(N)=O)[C@@H](C)O)C(C)C [TP622] (H-H[Aib]QGTFTSD[Phe(4-CH2NH2)]([AEEA-γGlu-C16 diacid])SKYLDARAAQDFVQWL[Met(O2)]DT-NH2; N-terminus assumed)
